Source: ChEMBL document CHEMBL3871307, “Discovery of Chromane Propionic Acid Analogues as Selective Agonists of GPR120 with in Vivo Activity in Rodents” (ACS Med Chem Lett, 2017)

Tests used:
Cytochrome P450 3A4 = Cytochrome P450 3A4 (Homo sapiens, UniProt P08684); test: Inhibition of human CYP3A4; assay type: ADME
[1] = Mean residence time in mouse plasma at 2 mg/kg, iv or 30 mg/kg, po by LC/MS/MS analysis; assay type: ADME, organism-based
[2] = Mean residence time in rat plasma at 1 mg/kg, iv or 2 mg/kg, po by LC/MS/MS analysis; assay type: ADME, organism-based
[3] = biological target: Free fatty acid receptor 1 (Mus musculus, UniProt Q76JU9); test: Agonist activity at mouse GPR40 assessed as increase in IP1 accumulation after 60 mins by HTRF assay; assay type: functional
Sequence of Free fatty acid receptor 1 (Mus musculus, UniProt Q76JU9) (Q76JU9 whole entry): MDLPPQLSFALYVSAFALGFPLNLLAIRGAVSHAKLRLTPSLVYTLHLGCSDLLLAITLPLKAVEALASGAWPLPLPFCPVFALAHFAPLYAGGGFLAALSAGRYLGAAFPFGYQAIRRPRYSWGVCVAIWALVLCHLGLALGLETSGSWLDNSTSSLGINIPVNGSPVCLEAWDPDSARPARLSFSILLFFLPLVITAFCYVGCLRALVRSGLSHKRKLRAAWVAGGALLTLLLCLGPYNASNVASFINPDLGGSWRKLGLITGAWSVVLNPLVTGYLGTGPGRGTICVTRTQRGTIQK

[4] = Inhibition of IKr (unknown origin) expressed in HEK293 cells; assay type: cell-based, Homo sapiens
[5] = biological target: Voltage-dependent L-type calcium channel subunit alpha-1C (Homo sapiens, UniProt Q13936); test: Inhibition of Cav1.2 (unknown origin)
Sequence of Voltage-dependent L-type calcium channel subunit alpha-1C (Q13936 whole entry): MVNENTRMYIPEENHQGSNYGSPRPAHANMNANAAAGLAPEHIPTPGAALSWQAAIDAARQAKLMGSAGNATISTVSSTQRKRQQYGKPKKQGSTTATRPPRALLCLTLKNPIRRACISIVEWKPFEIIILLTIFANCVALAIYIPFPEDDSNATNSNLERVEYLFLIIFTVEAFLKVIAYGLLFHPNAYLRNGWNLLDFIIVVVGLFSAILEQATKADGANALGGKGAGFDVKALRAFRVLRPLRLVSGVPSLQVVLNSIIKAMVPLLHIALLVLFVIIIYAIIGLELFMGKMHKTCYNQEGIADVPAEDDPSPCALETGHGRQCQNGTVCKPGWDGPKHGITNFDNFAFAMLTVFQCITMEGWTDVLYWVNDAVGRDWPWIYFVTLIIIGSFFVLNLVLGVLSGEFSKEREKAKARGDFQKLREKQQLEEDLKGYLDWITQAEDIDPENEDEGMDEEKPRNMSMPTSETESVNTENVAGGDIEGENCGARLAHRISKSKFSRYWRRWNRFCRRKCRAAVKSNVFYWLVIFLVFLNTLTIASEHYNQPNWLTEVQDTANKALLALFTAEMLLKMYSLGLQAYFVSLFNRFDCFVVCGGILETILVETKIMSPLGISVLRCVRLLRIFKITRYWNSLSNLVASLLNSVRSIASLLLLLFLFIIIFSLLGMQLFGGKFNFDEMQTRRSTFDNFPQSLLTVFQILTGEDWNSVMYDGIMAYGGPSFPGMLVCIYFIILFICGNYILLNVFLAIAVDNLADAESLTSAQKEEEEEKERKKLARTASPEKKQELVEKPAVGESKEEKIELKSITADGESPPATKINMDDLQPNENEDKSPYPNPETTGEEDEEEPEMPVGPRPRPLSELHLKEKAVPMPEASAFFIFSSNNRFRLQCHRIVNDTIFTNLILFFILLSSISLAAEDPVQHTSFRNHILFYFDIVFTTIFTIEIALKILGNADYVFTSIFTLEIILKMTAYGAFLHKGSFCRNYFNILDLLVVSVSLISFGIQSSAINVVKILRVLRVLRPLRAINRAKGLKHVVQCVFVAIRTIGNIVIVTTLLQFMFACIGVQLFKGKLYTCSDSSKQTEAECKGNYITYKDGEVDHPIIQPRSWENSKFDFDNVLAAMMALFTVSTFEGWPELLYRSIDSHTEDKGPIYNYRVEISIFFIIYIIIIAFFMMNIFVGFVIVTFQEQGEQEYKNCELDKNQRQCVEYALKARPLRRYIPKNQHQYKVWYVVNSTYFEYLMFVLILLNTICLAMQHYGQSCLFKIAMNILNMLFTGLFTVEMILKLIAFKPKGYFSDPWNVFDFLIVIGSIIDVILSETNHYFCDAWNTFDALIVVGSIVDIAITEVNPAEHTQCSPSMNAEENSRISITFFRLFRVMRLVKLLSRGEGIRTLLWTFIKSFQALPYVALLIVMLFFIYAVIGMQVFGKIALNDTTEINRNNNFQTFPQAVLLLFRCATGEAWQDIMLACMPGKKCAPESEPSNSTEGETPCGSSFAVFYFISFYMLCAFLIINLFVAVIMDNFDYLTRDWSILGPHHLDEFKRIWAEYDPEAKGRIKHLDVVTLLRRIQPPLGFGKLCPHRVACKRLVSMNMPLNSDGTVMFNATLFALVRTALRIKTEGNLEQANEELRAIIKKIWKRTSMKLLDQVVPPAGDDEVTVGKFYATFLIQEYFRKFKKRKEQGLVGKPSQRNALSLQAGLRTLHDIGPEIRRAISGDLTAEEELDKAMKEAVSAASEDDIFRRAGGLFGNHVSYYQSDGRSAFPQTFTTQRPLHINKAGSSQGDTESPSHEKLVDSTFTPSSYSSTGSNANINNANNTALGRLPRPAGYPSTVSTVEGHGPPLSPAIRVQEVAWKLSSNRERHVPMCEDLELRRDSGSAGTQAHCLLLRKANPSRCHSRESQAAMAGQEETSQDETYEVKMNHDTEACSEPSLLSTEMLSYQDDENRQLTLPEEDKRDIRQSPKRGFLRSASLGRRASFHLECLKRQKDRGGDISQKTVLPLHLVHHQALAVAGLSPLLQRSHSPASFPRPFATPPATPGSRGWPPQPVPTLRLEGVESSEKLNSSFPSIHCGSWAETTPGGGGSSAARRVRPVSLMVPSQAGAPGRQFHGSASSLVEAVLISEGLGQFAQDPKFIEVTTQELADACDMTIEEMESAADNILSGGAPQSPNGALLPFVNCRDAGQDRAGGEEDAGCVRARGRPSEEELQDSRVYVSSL

[6] = AUC in mouse plasma at 2 mg/kg, iv by LC/MS/MS analysis; assay type: ADME, organism-based
[7] = Terminal half life in rat plasma at 0.1 mg/kg administered as iv casette dose by LC/MS/MS analysis; assay type: ADME, organism-based; details: read-out: beta t1/2 (converted)
[8] = Oral bioavailability in rat plasma at 2 mg/kg by LC/MS/MS analysis; assay type: ADME, organism-based
[9] = Clearance in rat plasma at 0.1 mg/kg administered as iv casette dose by LC/MS/MS analysis; assay type: ADME, organism-based
[10] = Plasma concentration in wild type C57BL/6 transverse aortic constriction mouse harboring GPR120 at 150 mg/kg, po measured at 3 hrs; assay type: ADME, organism-based; details: C57BL/6, mouse
Cytochrome P450 2D6 = Cytochrome P450 2D6 (Homo sapiens, UniProt P10635); test: Inhibition of human CYP2D6; assay type: ADME
Sequence of Cytochrome P450 2D6 (P10635 whole entry, canonical isoform): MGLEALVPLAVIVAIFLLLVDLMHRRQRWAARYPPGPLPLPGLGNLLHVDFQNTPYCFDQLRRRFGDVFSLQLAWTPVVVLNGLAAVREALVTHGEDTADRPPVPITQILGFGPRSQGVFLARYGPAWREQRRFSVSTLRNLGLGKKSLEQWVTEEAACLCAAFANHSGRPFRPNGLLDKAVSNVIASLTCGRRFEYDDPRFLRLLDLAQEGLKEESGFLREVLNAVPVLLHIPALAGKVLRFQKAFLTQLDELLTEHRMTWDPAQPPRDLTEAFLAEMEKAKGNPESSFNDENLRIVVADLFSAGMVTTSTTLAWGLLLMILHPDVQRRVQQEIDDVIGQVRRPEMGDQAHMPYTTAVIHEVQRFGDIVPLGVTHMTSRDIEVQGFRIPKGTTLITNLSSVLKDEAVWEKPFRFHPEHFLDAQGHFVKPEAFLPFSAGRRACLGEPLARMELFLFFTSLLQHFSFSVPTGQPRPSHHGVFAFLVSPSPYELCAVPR

[11] = biological target: T1, Free fatty acid receptor 4 (Homo sapiens, UniProt Q5NUL3); test: Agonist activity at human GPR120 short isoform expressed in CHOK1 cells assessed as beta-arrestin recruitment after 90 mins by luminescence assay; assay type: cell-based, CHO-K1
T1 sequence (Q5NUL3 whole entry): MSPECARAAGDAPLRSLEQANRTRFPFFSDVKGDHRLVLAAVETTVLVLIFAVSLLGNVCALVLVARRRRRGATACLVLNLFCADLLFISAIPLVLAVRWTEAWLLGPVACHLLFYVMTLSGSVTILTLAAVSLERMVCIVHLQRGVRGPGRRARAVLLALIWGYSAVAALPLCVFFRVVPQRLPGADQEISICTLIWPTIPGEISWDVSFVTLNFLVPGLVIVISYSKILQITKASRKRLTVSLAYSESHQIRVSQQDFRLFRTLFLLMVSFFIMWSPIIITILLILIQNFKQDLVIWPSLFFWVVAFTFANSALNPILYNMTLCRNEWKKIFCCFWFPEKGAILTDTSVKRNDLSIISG

[12] = Clearance in mouse plasma at 2 mg/kg, iv or 30 mg/kg, po by LC/MS/MS analysis; assay type: ADME, organism-based
Mus musculus = test: Glucose lowering effect in C57BL/6 transverse aortic constriction mouse assessed as reduction in blood glucose pretreated for 60 mins via oral gavage followed by dextrose challenge measured up to 120 mins post glucose challenge by OGTT; assay type: functional
[13] = biological target: T2, Free fatty acid receptor 4 (Mus musculus, UniProt Q7TMA4); test: Agonist activity at mouse GPR120 expressed in human U2OS cells assessed as beta-arrestin recruitment after 90 mins by luminescence assay; assay type: cell-based
T2 sequence (Q7TMA4 whole entry): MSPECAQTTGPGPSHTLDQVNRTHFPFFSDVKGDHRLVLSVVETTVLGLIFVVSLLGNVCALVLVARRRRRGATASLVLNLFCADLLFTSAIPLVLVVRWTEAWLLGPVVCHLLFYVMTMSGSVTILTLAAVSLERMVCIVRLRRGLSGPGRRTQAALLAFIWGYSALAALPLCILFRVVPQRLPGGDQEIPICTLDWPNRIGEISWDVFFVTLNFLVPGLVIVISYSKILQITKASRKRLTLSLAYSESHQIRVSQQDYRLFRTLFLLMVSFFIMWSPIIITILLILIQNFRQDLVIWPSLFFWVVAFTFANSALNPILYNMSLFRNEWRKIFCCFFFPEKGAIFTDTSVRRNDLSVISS

[14] = Protein binding in mouse plasma at 2 mg/kg, iv or 30 mg/kg, po by LC/MS/MS analysis; assay type: ADME, organism-based; details: read-out: PPB (converted)
[15] = Terminal half life in mouse plasma at 2 mg/kg, iv or 30 mg/kg, po by LC/MS/MS analysis; assay type: ADME, organism-based; details: read-out: beta t1/2 (converted)
[16] = biological target: T3, Peroxisome proliferator-activated receptor alpha (Homo sapiens) (UniProt Q07869); test: Activity at PPARalpha (unknown origin)
T3 sequence (whole entry): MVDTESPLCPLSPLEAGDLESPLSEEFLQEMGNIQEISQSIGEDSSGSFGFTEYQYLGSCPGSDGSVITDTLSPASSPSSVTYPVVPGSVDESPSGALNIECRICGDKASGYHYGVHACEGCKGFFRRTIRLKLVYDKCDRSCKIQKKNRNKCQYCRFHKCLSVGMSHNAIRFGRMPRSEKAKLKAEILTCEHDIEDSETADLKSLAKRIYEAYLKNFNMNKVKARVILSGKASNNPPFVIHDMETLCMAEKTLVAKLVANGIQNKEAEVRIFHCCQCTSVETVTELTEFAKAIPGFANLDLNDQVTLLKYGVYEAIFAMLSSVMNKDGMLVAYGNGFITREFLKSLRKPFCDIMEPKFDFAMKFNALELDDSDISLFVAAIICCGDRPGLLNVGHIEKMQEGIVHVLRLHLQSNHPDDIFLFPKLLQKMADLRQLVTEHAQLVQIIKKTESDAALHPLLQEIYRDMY

[17] = Volume of distribution at steady state in mouse plasma at 2 mg/kg, iv or 30 mg/kg, po by LC/MS/MS analysis; assay type: ADME, organism-based; details: read-out: Vdss
[18] = Protein binding in rat plasma at 1 mg/kg, iv or 2 mg/kg, po by LC/MS/MS analysis; assay type: ADME, organism-based; details: read-out: PPB (converted)
[19] = Oral bioavailability in rhesus monkey plasma at 1 mg/kg by LC/MS/MS analysis; assay type: ADME, organism-based, Macaca mulatta
[20] = Oral bioavailability in mouse plasma at 30 mg/kg by LC/MS/MS analysis; assay type: ADME, organism-based
[21] = Volume of distribution at steady state in rat plasma at 1 mg/kg, iv or 2 mg/kg, po by LC/MS/MS analysis; assay type: ADME, organism-based; details: read-out: Vdss
[22] = biological target: Sodium channel protein type 5 subunit alpha (Homo sapiens, UniProt Q14524); test: Inhibition of Nav1.5 (unknown origin)
Sequence of Sodium channel protein type 5 subunit alpha (Q14524 whole entry, canonical isoform): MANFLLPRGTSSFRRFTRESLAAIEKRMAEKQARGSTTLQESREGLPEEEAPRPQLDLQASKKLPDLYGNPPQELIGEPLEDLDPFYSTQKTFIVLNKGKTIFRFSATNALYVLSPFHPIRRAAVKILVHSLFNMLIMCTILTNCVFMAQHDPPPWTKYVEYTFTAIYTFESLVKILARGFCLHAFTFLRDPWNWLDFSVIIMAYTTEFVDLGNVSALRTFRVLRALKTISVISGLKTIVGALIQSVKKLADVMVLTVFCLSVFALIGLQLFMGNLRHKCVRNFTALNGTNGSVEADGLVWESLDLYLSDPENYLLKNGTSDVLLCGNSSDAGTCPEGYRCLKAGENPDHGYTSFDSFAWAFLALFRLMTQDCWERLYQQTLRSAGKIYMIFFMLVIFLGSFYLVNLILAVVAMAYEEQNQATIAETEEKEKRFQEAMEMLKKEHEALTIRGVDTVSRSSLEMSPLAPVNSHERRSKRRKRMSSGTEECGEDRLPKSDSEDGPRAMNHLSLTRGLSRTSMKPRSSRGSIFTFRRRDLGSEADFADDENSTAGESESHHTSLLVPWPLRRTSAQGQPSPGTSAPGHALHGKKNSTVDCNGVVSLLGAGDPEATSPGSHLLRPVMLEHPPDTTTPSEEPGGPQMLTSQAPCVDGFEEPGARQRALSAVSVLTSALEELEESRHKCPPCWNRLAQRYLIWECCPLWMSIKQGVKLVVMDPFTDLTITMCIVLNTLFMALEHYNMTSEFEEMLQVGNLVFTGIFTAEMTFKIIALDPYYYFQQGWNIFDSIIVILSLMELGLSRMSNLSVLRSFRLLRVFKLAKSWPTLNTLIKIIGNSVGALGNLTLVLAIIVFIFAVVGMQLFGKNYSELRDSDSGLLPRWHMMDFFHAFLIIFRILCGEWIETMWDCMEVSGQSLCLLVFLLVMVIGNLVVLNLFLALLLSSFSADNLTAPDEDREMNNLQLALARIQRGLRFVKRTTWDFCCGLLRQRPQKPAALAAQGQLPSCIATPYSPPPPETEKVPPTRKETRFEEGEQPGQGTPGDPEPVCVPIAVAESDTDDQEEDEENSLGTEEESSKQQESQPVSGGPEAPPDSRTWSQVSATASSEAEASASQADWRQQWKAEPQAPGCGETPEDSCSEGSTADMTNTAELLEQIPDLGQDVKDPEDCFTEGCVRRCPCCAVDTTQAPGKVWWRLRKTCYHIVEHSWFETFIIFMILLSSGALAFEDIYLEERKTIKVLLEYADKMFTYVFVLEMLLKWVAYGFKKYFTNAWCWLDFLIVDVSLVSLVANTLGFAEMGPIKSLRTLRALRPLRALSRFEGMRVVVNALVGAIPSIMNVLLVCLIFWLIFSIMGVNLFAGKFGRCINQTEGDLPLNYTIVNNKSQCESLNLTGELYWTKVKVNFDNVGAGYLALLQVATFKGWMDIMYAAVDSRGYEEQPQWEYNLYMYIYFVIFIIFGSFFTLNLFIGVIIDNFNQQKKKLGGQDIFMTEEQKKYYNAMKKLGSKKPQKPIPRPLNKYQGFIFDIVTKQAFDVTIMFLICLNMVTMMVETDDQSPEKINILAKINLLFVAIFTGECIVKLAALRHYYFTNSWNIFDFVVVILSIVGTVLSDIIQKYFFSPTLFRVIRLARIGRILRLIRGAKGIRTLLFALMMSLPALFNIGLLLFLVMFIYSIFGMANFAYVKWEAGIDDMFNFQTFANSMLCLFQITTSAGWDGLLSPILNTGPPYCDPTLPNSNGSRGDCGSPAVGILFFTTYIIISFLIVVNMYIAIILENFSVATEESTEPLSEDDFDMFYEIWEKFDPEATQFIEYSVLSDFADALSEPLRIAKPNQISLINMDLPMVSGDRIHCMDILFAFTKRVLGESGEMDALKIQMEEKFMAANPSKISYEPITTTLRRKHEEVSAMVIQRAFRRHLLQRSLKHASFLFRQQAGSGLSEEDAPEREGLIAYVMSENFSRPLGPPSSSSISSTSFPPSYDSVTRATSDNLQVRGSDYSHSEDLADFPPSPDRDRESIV

[23] = biological target: T1, Free fatty acid receptor 4; test: Agonist activity at human GPR120 short isoform expressed in CHOK1 cells assessed as increase in IP1 accumulation after 60 mins by HTRF assay; assay type: functional, cell-based, CHO-K1
[24] = biological target: Free fatty acid receptor 1 (Homo sapiens, UniProt O14842); test: Agonist activity at human GPR40 expressed in HEK293 cells assessed as increase in IP1 accumulation after 60 mins by HTRF assay; assay type: functional, cell-based

IC50 (Cytochrome P450 3A4): > 50 µM
MRT [1]: 2.4 h
MRT [2]: 4.6 h
EC50 [3]: > 10 µM
AUC [6]: 8.1 µM·h
half-life [7]: 2.1 h
bioavailability [8]: 93%
clearance [9]: 1.3 mL/min/kg
concentration at 3 h [10]: 43.9 µM
IC50 (Cytochrome P450 2D6): > 50 µM
EC50 [11]: 0.024 µM
clearance [12]: 9.9 mL/min/kg
EC50 [13]: 0.0068 µM
fraction unbound [14]: 0.0033
half-life [15]: 3 h
Activity [16]: > 10 µM
Vd [17]: 1.4 L/kg
fraction unbound [18]: 0.0024
bioavailability [19]: 82%
bioavailability [20]: 76%
Vd [21]: 0.3 L/kg
EC50 [23]: 0.035 µM
EC50 [24]: > 10 µM
SMILES: CO[C@H]1C[C@H](Oc2cc(F)c(F)c(-c3ccc4c(c3)CC[C@H](CCC(=O)O)O4)n2)C1
IC50 [4]: > 60 µM
IC50 [5]: 28 µM
Activity (Mus musculus): Dose-dependent effect
minimal effective dose (Mus musculus; C57BL/6, Blood, read-out: MED): 10 mg/kg
IC50 [22]: 27 µM
